Results taken from PMC9090415, “Discovery of small molecule inhibitors of Plasmodium falciparum apicoplast DNA polymerase” (Journal of Enzyme Inhibition and Medicinal Chemistry, 2022).

Target: T1, bacteriophage T4 DNA polymerase (Enterobacteria phage T4, UniProt P04415)
T1 construct: made in house
T1 sequence (P04415 1-898): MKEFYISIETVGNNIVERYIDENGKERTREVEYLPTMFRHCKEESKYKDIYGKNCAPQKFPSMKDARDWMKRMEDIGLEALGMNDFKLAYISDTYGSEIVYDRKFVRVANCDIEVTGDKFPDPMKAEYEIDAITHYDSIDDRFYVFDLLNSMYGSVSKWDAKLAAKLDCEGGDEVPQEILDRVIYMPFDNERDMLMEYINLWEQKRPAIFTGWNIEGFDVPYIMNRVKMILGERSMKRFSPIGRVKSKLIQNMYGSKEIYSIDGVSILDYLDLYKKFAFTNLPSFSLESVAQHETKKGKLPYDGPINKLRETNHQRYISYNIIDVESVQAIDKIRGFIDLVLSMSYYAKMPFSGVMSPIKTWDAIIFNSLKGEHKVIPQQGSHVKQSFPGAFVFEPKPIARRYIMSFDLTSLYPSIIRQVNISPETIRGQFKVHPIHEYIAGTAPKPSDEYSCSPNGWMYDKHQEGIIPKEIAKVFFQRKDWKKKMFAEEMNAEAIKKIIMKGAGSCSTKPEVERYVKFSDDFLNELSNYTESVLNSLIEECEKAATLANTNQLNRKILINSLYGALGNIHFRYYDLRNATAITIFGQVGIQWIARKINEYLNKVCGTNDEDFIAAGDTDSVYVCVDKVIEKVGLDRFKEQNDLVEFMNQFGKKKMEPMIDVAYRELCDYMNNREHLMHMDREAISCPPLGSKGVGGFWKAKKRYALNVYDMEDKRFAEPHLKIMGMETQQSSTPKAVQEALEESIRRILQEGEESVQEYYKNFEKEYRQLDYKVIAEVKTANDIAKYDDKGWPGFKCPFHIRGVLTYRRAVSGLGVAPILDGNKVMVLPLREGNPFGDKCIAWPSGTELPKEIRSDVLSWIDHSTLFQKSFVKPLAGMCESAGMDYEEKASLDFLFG
Assay: Counter-screen against bacteriophage T4 DNA polymerase
Assay type: biochemical
Settings: for % inhibition T4 10' 2.5 / % inhibition T4 10' 5 / % inhibition T4 10' 10 / % inhibition T4 10' 20 / % inhibition T4 10' 40 / % inhibition T4 10' 80: read at 10'
Summary of the method: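 IC50 values come from dose-response testing of each compound against T4 DNA polymerase. This B-family polymerase was purified in-house and used as the counter-screen.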

CC(=O)OCC1=C(C(=O)[O-])N2C(=O)[C@@H](NC(=O)Cc3cccs3)[C@H]2SC1.[Na+] [Molecule 73, CC(=O)OCC1=C(C(=O)[O-])N2[C@H](SC1)[C@@H](C2=O)NC(=O)Cc1cccs1.[Na+]]
% inhibition T4 10' 2.5 (DRC-1, concentration 2.5): 11.7205%
% inhibition T4 10' 5 (DRC-1, concentration 5): 17.9504%
% inhibition T4 10' 10 (DRC-1, concentration 10): 24.8784%
% inhibition T4 10' 20 (DRC-1, concentration 20): 32.107%
% inhibition T4 10' 40 (DRC-1, concentration 40): 49.9492%
% inhibition T4 10' 80 (DRC-1, concentration 80): 43.1529%
% inhibition T4 70' 2.5 (DRC-1, read at 70', concentration 2.5): 9.196%
% inhibition T4 70' 5 (DRC-1, read at 70', concentration 5): 11.8887%
% inhibition T4 70' 10 (DRC-1, read at 70', concentration 10): 17.9088%
% inhibition T4 70' 20 (DRC-1, read at 70', concentration 20): 22.6844%
% inhibition T4 70' 40 (DRC-1, read at 70', concentration 40): 42.1653%
% inhibition T4 70' 80 (DRC-1, read at 70', concentration 80): 41.199%
% inhibition T4 130' 2.5 (DRC-1, read at 130', concentration 2.5): 4.91%
% inhibition T4 130' 5 (DRC-1, read at 130', concentration 5): 7.499%
% inhibition T4 130' 10 (DRC-1, read at 130', concentration 10): 13.1805%
% inhibition T4 130' 20 (DRC-1, read at 130', concentration 20): 16.8593%
% inhibition T4 130' 40 (DRC-1, read at 130', concentration 40): 38.0136%
% inhibition T4 130' 80 (DRC-1, read at 130', concentration 80): 33.8147%
% inhibition T4 10' 2.5 (DRC-2, concentration 2.5): 0.14%
% inhibition T4 10' 5 (DRC-2, concentration 5): 0.574%
% inhibition T4 10' 10 (DRC-2, concentration 10): 12%
% inhibition T4 10' 20 (DRC-2, concentration 20): 17%
% inhibition T4 10' 40 (DRC-2, concentration 40): 26%
% inhibition T4 10' 80 (DRC-2, concentration 80): 36%
% inhibition T4 40' 2.5 (DRC-2, read at 40', concentration 2.5): 0.442%
% inhibition T4 40' 5 (DRC-2, read at 40', concentration 5): 0.491%
% inhibition T4 40' 10 (DRC-2, read at 40', concentration 10): 11%
% inhibition T4 40' 20 (DRC-2, read at 40', concentration 20): 17%
% inhibition T4 40' 40 (DRC-2, read at 40', concentration 40): 25%
% inhibition T4 40' 80 (DRC-2, read at 40', concentration 80): 42%
% inhibition T4 90' 2.5 (DRC-2, read at 90', concentration 2.5): 1.28%
% inhibition T4 90' 10 (DRC-2, read at 90', concentration 10): 10%
% inhibition T4 90' 20 (DRC-2, read at 90', concentration 20): 17%
% inhibition T4 90' 40 (DRC-2, read at 90', concentration 40): 23%
% inhibition T4 90' 80 (DRC-2, read at 90', concentration 80): 41%
% inhibition T4 180' 2.5 (DRC-2, read at 180', concentration 2.5): 0.485%
% inhibition T4 180' 5 (DRC-2, read at 180', concentration 5): -2.85%
% inhibition T4 180' 10 (DRC-2, read at 180', concentration 10): 6.41%
% inhibition T4 180' 20 (DRC-2, read at 180', concentration 20): 14%
% inhibition T4 180' 40 (DRC-2, read at 180', concentration 40): 20%
% inhibition T4 180' 80 (DRC-2, read at 180', concentration 80): 41%

CC(C)(C)OC(=O)COc1ccc2cc(-c3ccccc3)c(=O)oc2c1 [Molecule 81, O=C(OC(C)(C)C)COc1ccc2c(c1)oc(=O)c(c2)c1ccccc1]
% inhibition T4 10' (DRC-2, concentration 10): 13%
% inhibition T4 10' (DRC-2, concentration 40): 7%
% inhibition T4 40' (DRC-2, concentration 2.5): 16%
% inhibition T4 40' (DRC-2, concentration 5): 13%
% inhibition T4 40' (DRC-2, concentration 10): 10%
% inhibition T4 40' (DRC-2, concentration 20): 6%
% inhibition T4 40' (DRC-2, concentration 80): 6%
% inhibition T4 90' (DRC-2, concentration 2.5): 16%
% inhibition T4 90' (DRC-2, concentration 5): 13%
% inhibition T4 90' (DRC-2, concentration 10): 10%
% inhibition T4 90' (DRC-2, concentration 20): 6%
% inhibition T4 180' (DRC-2, concentration 2.5): 13%
% inhibition T4 180' (DRC-2, concentration 10): 7%

Cc1ccc(C(=O)/C=C/C=C/C=C/N(C)C)o1 [Molecule 96, CN(/C=C/C=C/C=C/C(=O)c1ccc(o1)C)C]
% inhibition T4 10' (DRC-2, concentration 10): 11%
% inhibition T4 90' (DRC-2, concentration 5): 11%
